The target in this assay is truncated form of human NaV 1.8 with full channel activity (Homo sapiens, UniProt Q9Y5Y9). Description: E-VIPR Assay Method B for detecting and measuring Nav inhibition (HEK cells, membrane potential FRET dyes, electrical stimulation). The class given is cell-based. The settings on record: HEK cells expressing human NaV 1.8, Table 20B, read-out: Nav 1.8 MedChem Optical Assay EVIPR Assay Method B HS IC50. From the text: [formula] where X is the ratio response of the test compound. […] E-VIPR Assay Method B for Detecting and Measuring Nav Inhibition Properties Sodium ion channels are voltage-dependent proteins that can be activated by inducing membrane voltage changes by applying electric fields. The electrical stimulation instrument and methods of use, referred to as E-VIPR, are described in International Publication No. WO 2002/008748 A3 and C.-J. Huang et al. Characterization of voltage-gated sodium channel blockers by electrical stimulation and fluorescence detection of membrane potential, 24 Nature Biotech. 439-46 (2006), both of which are incorporated by reference in their entirety. The instrument comprises a microtiter plate handler, an optical system for exciting the coumarin dye while simultaneously recording the coumarin and oxonol emissions, a waveform generator, a current- or voltage-controlled amplifier, and parallel electrode pairs that are inserted into assay plate wells. Under integrated computer control, this instrument passes user-programmed electrical stimulus protocols to cells within the wells of the microtiter plate. […] Sigma #F4135), 1% NEAA (Non-Essential Amino Acids, Life Tech #11140), 1% HEPES (Life Tech #15630), 1% Pen-Strep (Penicillin-Streptomycin; […] Cells were expanded in vented cap flasks, with 95% humidity and 5% CO2. Reagents and Stock Solutions: • 100 mg/mL Pluronic F-127 (Sigma #P2443), in dry DMSO • Compound Plates: […] 5% KIR 2.1 Bacmam virus (produced in-house), prepared as described in Section 3.3 of J. A. Fornwald et al., Gene Expression in Mammalian Cells Using BacMam, a Modified Baculovirus System, 1350 Methods in Molecular Biology 95-116 (2016), the entire contents of which are incorporated by reference. • 5 mM DiSBAC6(3) (a voltage sensitive oxonol acceptor) (Aurora #00-100-010) in dry DMSO • 5 mM CC2-DMPE (a membrane-bound coumarin phospholipid FRET donor) (Aurora #00-100-008) in dry DMSO • 89 mM VABSC-1 in H2O. […] The solution was made by adding 10% Pluronic F127 stock equal to combined volumes of CC2-DMPE and DiSBAC6(3). The order of preparation was first mix Pluronic and CC2-DMPE, then add DiSBAC6(3), then while vortexing add Bath1/β-Cyclodextrin. […] Assay Protocol: […] Final DMSO concentration for all wells in the assay was 0.625% (0.75% DMSO was supplemented to the Compound Loading Buffer for a final DMSO concentration of 0.625%). 2) Hexyl Dye Solution was prepared. 3) Cell plates were prepared. On the day of the assay, the media was aspirated, and the cells were washed three times with 80 μL of Bath-1 buffer, maintaining 25 μL residual volume in each well. 4) 25 μL per well of Hexyl Dye Solution was dispensed into the cell plates. The cells were incubated for 20 minutes at room temp or ambient conditions in darkness. 5) 80 μL per well of Compound Loading Buffer was dispensed into compound plates. […] The mixture was incubated for 30 minutes at room temp/ambient conditions. […] A pre-stimulus recording was performed for 0.5 seconds to obtain the un-stimulated intensities baseline. The stimulatory waveform was followed by 0.5 seconds of post-stimulation recording to examine the relaxation to the resting state. Data Analysis: Data were analyzed and reported as normalized ratios of emission intensities measured in the 460 nm and 580 nm channels. The response as a function of time was reported as the ratios obtained using the following formula: [formula] The data were further reduced by calculating the initial (Ri) and final (Rf) ratios. These were the average ratio values during part or all of the pre-stimulation period and during sample points during the stimulation period. The fluorescence ratio (Rf/Ri) was then calculated and reported as a function of time. Control responses were obtained by performing assays in the presence of the positive control, and in the absence of pharmacological agents (DMSO vehicle negative control). Responses to the negative (N) and positive (P) controls were calculated as above. […]
Chain of truncated form of human NaV 1.8 with full channel activity (Q9Y5Y9 126-1722 limits assumed): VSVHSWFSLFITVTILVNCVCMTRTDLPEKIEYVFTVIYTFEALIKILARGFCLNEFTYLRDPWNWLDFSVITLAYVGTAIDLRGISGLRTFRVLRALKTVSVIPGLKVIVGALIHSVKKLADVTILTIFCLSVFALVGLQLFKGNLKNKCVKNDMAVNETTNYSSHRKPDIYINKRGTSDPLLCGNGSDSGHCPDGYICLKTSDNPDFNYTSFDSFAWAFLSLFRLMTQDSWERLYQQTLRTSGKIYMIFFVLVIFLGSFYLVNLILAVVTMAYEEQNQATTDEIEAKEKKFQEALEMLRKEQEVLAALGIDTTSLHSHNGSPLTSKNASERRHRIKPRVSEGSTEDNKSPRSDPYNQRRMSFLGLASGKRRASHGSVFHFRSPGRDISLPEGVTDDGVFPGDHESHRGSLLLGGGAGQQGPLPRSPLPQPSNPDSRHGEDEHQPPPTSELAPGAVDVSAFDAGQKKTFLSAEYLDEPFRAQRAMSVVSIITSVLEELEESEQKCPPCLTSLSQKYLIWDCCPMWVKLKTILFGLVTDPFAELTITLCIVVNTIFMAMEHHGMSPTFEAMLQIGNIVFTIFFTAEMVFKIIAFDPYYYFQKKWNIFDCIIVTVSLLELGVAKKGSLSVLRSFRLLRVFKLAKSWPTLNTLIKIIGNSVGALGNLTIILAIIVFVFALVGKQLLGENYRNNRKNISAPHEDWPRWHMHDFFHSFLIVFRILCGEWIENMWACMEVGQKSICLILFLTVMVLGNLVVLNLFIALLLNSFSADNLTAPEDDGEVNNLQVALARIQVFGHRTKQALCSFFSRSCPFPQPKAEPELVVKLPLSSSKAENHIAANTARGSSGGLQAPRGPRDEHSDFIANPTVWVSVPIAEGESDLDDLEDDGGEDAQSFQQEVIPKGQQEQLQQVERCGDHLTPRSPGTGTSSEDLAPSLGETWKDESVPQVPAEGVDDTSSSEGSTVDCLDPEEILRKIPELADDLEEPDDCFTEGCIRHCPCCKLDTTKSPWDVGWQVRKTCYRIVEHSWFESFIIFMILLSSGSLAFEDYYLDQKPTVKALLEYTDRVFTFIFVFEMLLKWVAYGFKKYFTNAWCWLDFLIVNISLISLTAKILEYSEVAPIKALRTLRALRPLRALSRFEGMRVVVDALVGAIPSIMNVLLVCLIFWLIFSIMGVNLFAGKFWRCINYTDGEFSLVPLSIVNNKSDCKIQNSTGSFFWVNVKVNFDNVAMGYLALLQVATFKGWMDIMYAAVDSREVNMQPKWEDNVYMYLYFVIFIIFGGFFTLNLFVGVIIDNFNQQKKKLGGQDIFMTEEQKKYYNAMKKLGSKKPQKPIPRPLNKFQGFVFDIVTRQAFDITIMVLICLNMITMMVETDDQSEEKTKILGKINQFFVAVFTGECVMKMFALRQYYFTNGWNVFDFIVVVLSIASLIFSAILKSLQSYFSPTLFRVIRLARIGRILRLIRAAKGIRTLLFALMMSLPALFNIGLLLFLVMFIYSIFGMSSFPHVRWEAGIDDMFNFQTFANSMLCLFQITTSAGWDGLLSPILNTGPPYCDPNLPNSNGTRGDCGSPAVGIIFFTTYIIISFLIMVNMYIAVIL
One may read the IC50 as the concentration needed to halve the response being measured. As for `COc1ccc(Oc2cc(C(F)(F)F)ccc2C(=O)Nc2cccc(C(N)=O)c2)c(Cl)c1` [Compound 299, N-(3-carbamoylphenyl)-2-[2-chloro-4-(methoxy)phenoxy]-4-(trifluoromethyl)benzamide], the IC50 turned out to be 130 nM.

As for `COc1cc(Cl)ccc1Oc1cc(C(F)(F)C(F)(F)F)ccc1C(=O)Nc1cccc(C(N)=O)c1` [Compound 247, N-(3-carbamoylphenyl)-2-(4-chloro-2-methoxyphenoxy)-4-(1,1,2,2,2-pentafluoroethyl)benzamide], the 50% inhibitory concentration (IC50) was determined as 33 nM.

For the compound `NC(=O)c1cccc(NC(=O)c2cc(C(F)(F)F)ccc2Oc2ccccc2Cl)c1` [Compound 283, N-(3-carbamoylphenyl)-2-(2-chlorophenoxy)-5-(trifluoromethyl)benzamide], the IC50 worked out at 82 nM.

For `COc1ccc(Oc2ccc(C(F)(F)F)cc2C(=O)Nc2cccc(C(N)=O)c2)c(OC)c1` [Compound 281, N-(3-carbamoylphenyl)-2-(2,4-dimethoxyphenoxy)-5-(trifluoromethyl)benzamide], the IC50 turned out to be 39 nM.

Consider `Cc1cc(F)ccc1Oc1ccc(C(F)(F)F)cc1C(=O)Nc1cccc(C(N)=O)c1C` [Compound 291, N-(3-carbamoyl-2-methylphenyl)-2-(4-fluoro-2-methylphenoxy)-5-(trifluoromethyl)benzamide], for which the IC50 came out at 1400 nM.

Turning to `COc1ccc(Oc2cc(Cl)c(Cl)cc2C(=O)Nc2cccc(C(N)=O)c2)c(OC)c1` [Compound 269, N-(3-carbamoylphenyl)-4,5-dichloro-2-(2,4-dimethoxyphenoxy)benzamide], the IC50 came out at 9 nM.

As for `COc1cc(F)ccc1Oc1cc(C(F)(F)C(F)(F)F)ccc1C(=O)Nc1cccc(C(N)=O)c1` [Compound 248, N-(3-carbamoylphenyl)-2-(4-fluoro-2-methoxyphenoxy)-4-(1,1,2,2,2-pentafluoroethyl)benzamide], the IC50 is 11 nM.

Turning to `NC(=O)c1cccc(NC(=O)c2cc(C(F)(F)F)ccc2Oc2ccc(F)cc2Cl)c1` [Compound 289, N-(3-carbamoylphenyl)-2-(2-chloro-4-fluorophenoxy)-5-(trifluoromethyl)benzamide], the IC50 was found to be 36 nM.

With `NC(=O)c1cccc(NC(=O)c2c(Oc3ccc(F)cc3)cccc2C(F)(F)F)c1` [Compound 257, N-(3-carbamoylphenyl)-2-(4-fluorophenoxy)-6-(trifluoromethyl)benzamide], the IC50 came to 415 nM.

For `Cc1cc(F)ccc1Oc1ccc(C(F)(F)F)cc1C(=O)Nc1ccc(Cl)c(C(N)=O)c1` [Compound 293, N-(3-carbamoyl-4-chlorophenyl)-2-(4-fluoro-2-methylphenoxy)-5-(trifluoromethyl)benzamide], the IC50 worked out at 33 nM.

With `NC(=O)c1cccc(NC(=O)c2c(Oc3ccc(F)cc3Cl)cccc2C(F)(F)F)c1` [Compound 260, N-(3-carbamoylphenyl)-2-(2-chloro-4-fluorophenoxy)-6-(trifluoromethyl)benzamide], the IC50 was determined as 166 nM.

`Cc1cc(F)ccc1Oc1ccc(C(F)(F)F)cc1C(=O)Nc1ccc(C)c(C(N)=O)c1` [Compound 294, N-(3-carbamoyl-4-methylphenyl)-2-(4-fluoro-2-methylphenoxy)-5-(trifluoromethyl)benzamide]: the IC50 was 37 nM.

As for `Cc1cc(F)ccc1Oc1ccc(C(F)(F)F)cc1C(=O)Nc1ccc(C(N)=O)cc1` [Compound 297], the concentration for half-maximal inhibition (IC50) worked out at 40 nM.

With `Cc1cccc(Oc2ccc(F)cc2Cl)c1C(=O)Nc1cccc(C(N)=O)c1` [Compound 275, N-(3-carbamoylphenyl)-2-(2-chloro-4-fluoro-phenoxy)-6-methyl-benzamide], the IC50 is 165 nM.

Consider `COc1ccc(Oc2cc(C(F)(F)C(F)(F)F)ccc2C(=O)Nc2cccc(C(N)=O)c2)c(OC)c1` [Compound 252, N-(3-carbamoylphenyl)-2-(2,4-dimethoxyphenoxy)-4-(1,1,2,2,2-pentafluoroethyl)benzamide], for which the IC50 stood at 36 nM.

In the case of `COc1cc(F)ccc1Oc1ccc(C(F)(F)F)cc1C(=O)Nc1cccc(C(N)=O)c1` [Compound 288, N-(3-carbamoylphenyl)-2-(4-fluoro-2-methoxyphenoxy)-5-(trifluoromethyl)benzamide], the IC50 was found to be 34 nM.

As for `COc1ccccc1Oc1ccc(C(F)(F)F)cc1C(=O)Nc1cccc(C(N)=O)c1` [Compound 287, N-(3-carbamoylphenyl)-2-(2-methoxyphenoxy)-5-(trifluoromethyl)benzamide], the IC50 is 84 nM.

As to `Cc1cc(Cl)ccc1Oc1ccc(C(F)(F)F)cc1C(=O)Nc1cccc(C(N)=O)c1` [Compound 284, N-(3-carbamoylphenyl)-2-(4-chloro-2-methylphenoxy)-5-(trifluoromethyl)benzamide], the IC50 is 43 nM.

Regarding `NC(=O)c1cccc(NC(=O)c2cc(Cl)c(Cl)cc2Oc2ccc(OC(F)(F)F)cc2)c1` [Compound 272, N-(3-carbamoylphenyl)-4,5-dichloro-2-[4-(trifluoromethoxy)phenoxy]benzamide], the IC50 worked out at 8 nM.

Turning to `CC(C)(C)c1ccc(C(=O)Nc2cncc(C(N)=O)c2)c(Oc2ccc(C(F)(F)F)nc2)c1` [Compound 261, 5-(4-(tert-butyl)-2-((6-(trifluoromethyl)pyridin-3-yl)oxy)benzamido)nicotinamide], the IC50 is 1200 nM.

Regarding `NC(=O)c1cccc(NC(=O)c2ccc(C(F)(F)F)cc2Oc2ccc(F)cc2)c1` [Compound 300, N-(3-carbamoylphenyl)-2-[4-fluorophenoxy]-4-(trifluoromethyl)benzamide], the half-inhibitory concentration (IC50) stood at 61 nM.

Regarding `NC(=O)c1cccc(NC(=O)c2ccc(C(F)(F)C(F)(F)F)cc2Oc2ccc(F)cc2)c1` [Compound 249, N-(3-carbamoylphenyl)-2-(4-fluorophenoxy)-4-(1,1,2,2,2-pentafluoroethyl)benzamide], the 50% inhibitory concentration (IC50) amounted to 60 nM.

With `NC(=O)c1ccc(NC(=O)c2c(Oc3ccc(F)cc3Cl)cccc2C(F)(F)F)cn1` [Compound 256, 5-[[2-(2-chloro-4-fluoro-phenoxy)-6-(trifluoromethyl)benzoyl]amino]pyridine-2-carboxamide], the concentration for half-maximal inhibition (IC50) was found to be 550 nM.

The values are drawn from patent US12281057B2 (VERTEX PHARMACEUTICALS INCORPORATED, priority 2017, dated 2025).
